Article PMC12073238, “The α-Glucosidase Inhibition Activities of Phaeochromycins D and E Isolated from Marine Streptomyces sp. FJ0218” (Molecules, 2025)
Read-outs that look alike come from different tables or passages of the source. Each block holds one compound with its values, some of them ahead of it.

Experiments:
[1] = target: T1, α-glucosidase (Saccharomyces cerevisiae, UniProt P53341); conditions: cited from earlier work
[2] = target: T1, α-glucosidase; assay: inhibition kinetics of α-glucosidase, Lineweaver–Burk double-reciprocal plots; assay type: biochemical; conditions: compound 1 at 0.5 and 0.7 mM, compound 2 at 0.2 and 0.3 mM; for inhibition type: ρNPG 0.25-4.0 mM
Procedure: Louis, MO, USA) in the same PBS buffer. […] After being thoroughly mixed, the mixture was placed in a 37 °C constant temperature incubator for 15 min. […] Then, 80 μL of 200 mM Na2CO3 solution was added to complete the reaction. Finally, the absorbance value (OD) was measured at 405 nm using a microplate reader. The experiment used 20 μL of PBS as the background control instead of 20 μL of α-glucosidase solution. Additionally, 20 μL of PBS was used as the negative control instead of the test sample. […] Each treatment was repeated three times. The α-glucosidase inhibitory activity was calculated using the following formula: Inhibitory rate (%) = [(An - As)/An] × 100, where As represents the absorbance of the sample reaction solution, and An represents the absorbance of the negative control. The IC50 values, the inhibitor concentration in mM that inhibits 50% of the enzyme activity, were determined graphically by interpolating from the inhibitions determined with different concentrations of compounds, through statistical analysis using SPSS 18.0. […] For compound 1, concentrations of 0.5 mM and 0.7 mM were used, while for compound 2, concentrations of 0.2 mM and 0.3 mM were selected. […] The enzyme reaction was performed using the conditions described above. Inhibition types were analyzed using double-reciprocal plots generated with Origin 2021.

[3] = tested on: small intestinal α-glucosidase; parameters: method as in PMID 26840363; conditions: small intestinal α-glucosidase in rats; cited from earlier work
[4] = target: MAPKAP kinase-2; parameters: method as in PMID 16124774; conditions: weak inhibitors; cited from earlier work
[5] = tested on: HeLa cell line; parameters: method as in PMID 19190740; conditions: at a concentration of 10 μg/mL; cited from earlier work

T1 sequence (P53341 whole entry): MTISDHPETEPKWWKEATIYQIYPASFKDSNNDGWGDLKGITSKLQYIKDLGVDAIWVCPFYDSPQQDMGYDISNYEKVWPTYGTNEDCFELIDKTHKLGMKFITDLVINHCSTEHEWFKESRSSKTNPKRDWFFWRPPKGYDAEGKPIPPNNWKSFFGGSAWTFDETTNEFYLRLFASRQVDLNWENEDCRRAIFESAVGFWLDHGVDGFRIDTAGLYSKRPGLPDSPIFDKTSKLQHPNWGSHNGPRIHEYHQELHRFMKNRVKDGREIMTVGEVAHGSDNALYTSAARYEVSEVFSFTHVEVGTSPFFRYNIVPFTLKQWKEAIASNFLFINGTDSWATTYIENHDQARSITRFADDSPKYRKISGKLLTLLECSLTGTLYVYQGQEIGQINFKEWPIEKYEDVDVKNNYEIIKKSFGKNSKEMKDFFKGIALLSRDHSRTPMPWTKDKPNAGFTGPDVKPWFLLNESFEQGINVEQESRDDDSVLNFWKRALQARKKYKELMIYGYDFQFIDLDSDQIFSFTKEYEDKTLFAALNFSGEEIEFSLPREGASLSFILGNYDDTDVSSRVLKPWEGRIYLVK

Compound: Cc1nc2c(cc(O)c3c(=O)c4ccccc4oc32)o1 [5-hydroxy-2-methyl-6H-xantheno[4,3-d]oxazol-6-one]
inhibition type ([1]; kinetic analysis): competitive inhibitor

effect on Km [2]: Km decreases
effect on Vmax [2]: decrease in Vmax
inhibition type [2]: uncompetitive inhibitor
Compound: CCCc1cc(=O)c2c(CC(=O)O)cccc2o1 [Compound 1, phaeochromycin E]

effect on Km [2]: keeping the Km constant
effect on Vmax [2]: decreasing the 1/Vmax
inhibition type [2]: non-competitive inhibitor
Compound: CCCc1cc(=O)c2c(CC(=O)CC(C)O)cccc2o1 (stereo not shown) [Compound 2, phaeochromycin D]

Compound: NS(=O)(=O)c1ccc(N/N=C/c2coc3ccccc3c2=O)cc1 [Compound 4d]
inhibition type ([1]; Lineweaver–Burk plot analysis): non-competitive mode

Compound: O=C(OC[C@H]1O[C@@H](OC(=O)c2cc(O)c(O)c(OC(=O)c3cc(O)c(O)c(O)c3)c2)[C@H](OC(=O)c2cc(O)c(O)c(OC(=O)c3cc(O)c(O)c(O)c3)c2)[C@@H](OC(=O)c2cc(O)c(O)c(OC(=O)c3cc(O)c(O)c(O)c3)c2)[C@@H]1OC(=O)c1cc(O)c(O)c(OC(=O)c2cc(O)c(O)c(O)c2)c1)c1cc(O)c(O)c(OC(=O)c2cc(O)c(O)c(O)c2)c1 [Gallotannin]
inhibition type [1]: parabolic mixed-type inhibition

Compound: OC[C@@H]1[C@@H](O)[C@H](O)C[S@@+]1C[C@@H](O)[C@@H](O)[C@H](O)[C@@H](O)CO [Neoponkoranol]
inhibition type [3]: strong competitive inhibition

Compound: CCCc1cc(=O)c2c(Cc3cc(O)cc(=O)o3)cccc2o1 [Phaeochromycin C]
IC50 [4]: 130 µM

Compound: CC(=O)CCc1ccc(O)cc1 [Raspberry ketone]
inhibition type ([1]; binding reversibly and quickly): non-competitively

Compound: O=c1c(-c2ccc(O)cc2)coc2cc(O)ccc12 [daidzein]
inhibition type [1]: non-competitive action

Compound: O=c1c(-c2ccc(O)cc2)coc2cc(O)cc(O)c12 [genistein]
inhibition type [1]: non-competitive action

Compound: Phaeochromycin A
IC50 [4]: 39 µM

Compound: phaeochromycin H
inhibitory rate against the HeLa cell line [5]: 46.0%
